Where a name gives a salt, the structure may show the parent alone. Read-outs that look alike come from different tables or passages of the source. Where no end group is shown, it is not given here. Where only a bound is given, the exact number is not on record here.

The subject of test [1] is Lactobacillus gasseri ATCC 19992. Description: MIC gut microflora, Lactobacillus gasseri. It is filed as cell-based. The protocol:
(§1) The susceptibility of gut microflora strains to the rpoA-TAT conjugate was determined using the broth microdilution assay, as described above. Briefly, bacterial suspensions of Bifidobacterium sp. and Bacteroides sp., in supplemented BHIS broth, and Lactobacilli strains, in MRS broth, were added to ultra-low adhesion 96-well plates and serially diluted. The MIC was recorded after 48 hours.

Test [2] has as its system C. difficile ATCC BAA 1870. The test is described as follows: MIC/MBC broth microdilution, C. difficile ATCC BAA 1870. It is filed as cell-based, Clostridioides difficile. The procedure: (§2) The susceptibility of C. difficile isolates to the CPP-PNA conjugates or to the CPP alone was determined in vitro as described before with slight modifications ([43] [–] [45]). Briefly, the CPP-PNA conjugates, the CPP alone, and the antibiotics vancomycin and fidaxomicin were added in triplicate to the first row of ultra-low adhesion 96-well plates (Corning Inc., Corning, NY). A suspension of C. difficile equivalent to 0.5 McFarland solution was added to Mueller-Hilton II broth, which was then added to the ultra-low adhesion plate and then serially diluted. The plates were incubated anaerobically for 48 hours at 37°C. The minimum inhibitory concentration was defined as the lowest concentration of the CPP-PNA conjugate that could inhibit bacterial growth when observed visually.
(§3) The MIC and MBC experiments were repeated twice.

The subject of test [3] is C. difficile ATCC 630. The test is described as follows: microbe, parasite or virus in culture. The protocol:
as §2, §3

The test system of test [4] is Bacteroides fragilis HM 714. Description: MIC gut microflora, Bacteroides fragilis. The class given is cell-based. As to conditions: Bacteroides fragilis, HM714, 48 h. The procedure:
as §1

The subject of test [5] is toxin A and toxin B production by C. difficile 630. The test is described as follows: Toxin production inhibition (ELISA). It is filed as cell-based, Clostridioides difficile. To be noted: sub-inhibitory concentrations 0.125×, 0.25×, 0.5× MIC, 8 hours, ELISA. The protocol:
After the incubation period, the bacterial count in each treatment group was determined by serial dilution and plating. Toxin content in the supernatant of each treatment group was determined using an enzyme-linked immunosorbent assay (ELISA, tgcBIOMICS) kit, as per the manufacturer’s protocol.

Test [6] has as its system C. difficile ATCC 630. Description: Effect of pH on MIC/MBC, C. difficile ATCC 630. The class given is cell-based, Clostridioides difficile. As to conditions: Clostridioides difficile. The procedure: as §2, §3
(§4) The susceptibility of C. difficile (ATCC 630 and ATCC BAA 1870) to the rpoA-TAT conjugate was evaluated over a pH range of 6 to 9 using the broth microdilution method ([43], [46] [–] [48]). The desired pH for susceptibility testing was attained by the addition of either 0.1 N HCL or 1 N NaOH to the media. The experiment was repeated twice.

Test [7] has as its system C. difficile 630. Description: Killing kinetics (time-kill assay). The class given is cell-based, Clostridioides difficile. To be noted: 1× MIC, within 24 hours of incubation, inoculum ~5 × 10^5 CFU/mL. The protocol:
The killing kinetics of the PNA construct was determined as described previously ([45] [–] [47]). Briefly, an overnight culture of C. difficile 630 was diluted 1:50 into fresh Mueller Hilton II broth (~10^5 CFU/mL) and added in triplicate to low adhesion microcentrifuge tubes containing either sterile water, the rpoA-TAT construct (1× MIC), or the positive controls vancomycin or fidaxomicin (1× MIC). The number of viable bacteria in each treatment group was determined by taking aliquots at 0, 4, 8, 12, 16, and 24 hours; these aliquots were then serially diluted and plated on BHIS agar plates. The plates were incubated anaerobically, and the number of colony-forming units for each treatment group was recorded the following day. The experiment was repeated twice.

Test [8] concerns Lactobacillus rhamnosus ATCC 53103. Description: MIC gut microflora, Lactobacillus rhamnosus. It is filed as cell-based. As to conditions: Lacticaseibacillus rhamnosus, ATCC53103, 48 h. The protocol:
as §1

A further test deals with C. difficile 1079. Description: MIC/MBC broth microdilution, C. difficile 1079. The class given is cell-based, Clostridioides difficile. The procedure:
as §2, §3

Test [9] concerns C. difficile ATCC BAA 1870. Description: Effect of pH on MIC/MBC, C. difficile ATCC BAA 1870. The class given is cell-based, Clostridioides difficile. To be noted: Clostridioides difficile. The protocol: as §2, §3, §4
Test [10] concerns Lactobacillus brevis ATCC 14869. Description: MIC gut microflora, Lactobacillus brevis. The class given is cell-based. As to conditions: Levilactobacillus brevis, ATCC14869, 48 h. The procedure:
as §1

For test [11], the system named is C. difficile 630. Description: Effect of high bacterial inoculum on activity. It is filed as cell-based, Clostridioides difficile. As to conditions: 8 hours. The protocol: The in vitro efficacy of the PNA constructs against a high inoculum size of C. difficile 630 was determined. Briefly, the PNA constructs and control antibiotics, at a concentration of 1× MIC, were added in triplicate to low adhesion microcentrifuge tubes (Corning Inc., Corning, NY). A high inoculum of C. difficile suspension equivalent to ~5 × 10^6 and ~5 × 10^7 cells was added to the tubes, which were incubated anaerobically at 37°C. The number of viable bacteria in each treatment group was determined by serial dilution and plating on BHIS agar plates at 8 hours and 24 hours post-incubation, respectively. The effect of a high inoculum on the activity of the PNA construct was repeated twice.

The subject of test [12] is Bifidobacterium longum subsp. longum HM 846. The test is described as follows: MIC gut microflora, Bifidobacterium longum. The class given is cell-based. The procedure:
as §1

The next test has as its system C. difficile ATCC 43255. The test is described as follows: MIC/MBC broth microdilution, C. difficile ATCC 43255. The class given is cell-based, Clostridioides difficile. The procedure: as §2, §3
The next test concerns C. difficile 1071. Description: MIC/MBC broth microdilution, C. difficile 1071. The class given is cell-based, Clostridioides difficile. The protocol:
as §2, §3
In general terms: Dilution methods test growth across graded concentrations, often in twofold steps.

Another test has as its system C. difficile 1082. The test is described as follows: MIC/MBC broth microdilution, C. difficile 1082. It is filed as cell-based, Clostridioides difficile. The procedure: as §2, §3
The subject of test [13] is spore formation by C. difficile ATCC 630. The test is described as follows: Spore formation inhibition. It is filed as cell-based, Clostridioides difficile. To be noted: 0.5× MIC, 12 hours. The protocol: After the incubation period, the total bacterial count for each treatment group was determined by serial dilution and plating on BHIS agar plates supplemented with 0.1% taurocholic acid. To determine the presence of spores, the remaining bacterial culture from each treatment group was heated at 65°C for 30 minutes to ensure all vegetative cells were killed. The bacterial culture from each treatment group was then serially diluted and plated on BHIS agar plates supplemented with 0.1% taurocholic acid. The plates were incubated overnight, and the CFU counts for each treatment group were determined the following day.

Test [14] relates to clinical isolates of C. difficile. Description: MIC against clinical isolates of C. difficile (summary). The class given is cell-based, Clostridioides difficile. To be noted: range over isolates of Table 3. The protocol:
as §2, §3

Where [15] appears, read: broth microdilution, Mueller-Hilton II broth, anaerobic 48 hours 37°C, visual, triplicate, repeated twice.
Setting [16] is: broth microdilution, anaerobic 48 hours 37°C, visual, read-out: MIC.
Where [17] appears, read: plated on BHIS agar, read-out: MBC.
Setting [18] is: aliquots of wells without growth plated on BHIS agar, repeated twice.

As to `CN[C@H](CC(C)C)C(=O)N[C@H]1C(=O)N[C@@H](CC(N)=O)C(=O)N[C@H]2C(=O)N[C@H]3C(=O)N[C@H](C(=O)N[C@H](C(=O)O)c4cc(O)cc(O)c4-c4cc3ccc4O)[C@H](O)c3ccc(c(Cl)c3)Oc3cc2cc(c3O[C@@H]2O[C@H](CO)[C@@H](O)[C@H](O)[C@H]2O[C@H]2C[C@](C)(N)[C@H](O)[C@H](C)O2)Oc2ccc(cc2Cl)[C@H]1O` [Vancomycin, Vancomycin hydrochloride], the MIC in test [1] (Lactobacillus gasseri, ATCC19992, 48 h) was determined as 1 µM; in test [1] (broth microdilution, MRS broth, 48 hours, read-out: MIC) it was 1 µM; in [2] (Clostridioides difficile, BAA1870, 48 h), 4 µM; against C. difficile ATCC 630 [3] (Clostridioides difficile, ATCC630, 48 h) it was 2 µM; in test [4], 64 µM; in the test on C. difficile ATCC 630 [6] (ATCC630, pH 6) it was 2 µM. In addition, the MIC is 4 µM in the test on C. difficile ATCC 630 [6] (ATCC630, pH 7); 8 µM in the test with C. difficile ATCC 630 [6] (ATCC630, pH 8); above 64 µM in test [8]; 2 µM with C. difficile 1079 (Clostridioides difficile, 1079, 48 h); 4 µM in test [9] (BAA1870, pH 6); 4 µM in [9] (BAA1870, pH 7). Also, the MIC in test [9] (BAA1870, pH 8) is 8 µM; in test [10] it was above 64 µM; in [12] (Bifidobacterium longum, 48 h), 2 µM; in [12] (broth microdilution, supplemented BHIS broth, 48 hours), 2 µM; in the test on C. difficile ATCC 43255 (Clostridioides difficile, ATCC43255, 48 h) it was 4 µM; against C. difficile 1071 (Clostridioides difficile, 1071, 48 h), 2 µM. Besides, in the test on C. difficile 1082 (Clostridioides difficile, 1082, 48 h), the MIC turned out to be 2 µM. Besides, the MBC in [2] (Clostridioides difficile, BAA1870) was found to be 4 µM; against C. difficile ATCC 630 [3] (Clostridioides difficile, ATCC630) it was 2 µM; against C. difficile ATCC 630 [6] (ATCC630, pH 6) it was 2 µM; against C. difficile ATCC 630 [6] (ATCC630, pH 7), 4 µM; in the test with C. difficile ATCC 630 [6] (ATCC630, pH 8), 16 µM; with C. difficile 1079 (Clostridioides difficile, 1079) it was 2 µM. The MBC in test [9] (BAA1870, pH 6) amounted to 4 µM; in test [9] (BAA1870, pH 7) it was 8 µM; in test [9] (BAA1870, pH 8) it was 16 µM; in the test on C. difficile ATCC 43255 (Clostridioides difficile, ATCC43255), 4 µM; in the test with C. difficile 1071 (Clostridioides difficile, 1071) it was 2 µM; in the test with C. difficile 1082 (Clostridioides difficile, 1082), 2 µM. For the same molecule, the “inhibition of toxin production (in words)” value in test [5] is given as “did not inhibit toxin production”. For the same molecule, in the test with C. difficile 630 [7], the “reduction of bacterial burden” value is on record as ~ 1.6 log10 CFU/mL. For the same molecule, the “Log CFU” value is reported as 5.37 in the test with C. difficile 630 [11] (inoculum 5 × 10^6, 1× MIC) and 7.03 with C. difficile 630 [11] (inoculum 5 × 10^7, 1× MIC). The Log reduction with C. difficile 630 [11] (inoculum 5 × 10^6, 1× MIC, vs no treatment) came to 1. The “inhibition of spore formation (in words)” value in [13] is on record as “did not inhibit spore formation”.

As to GRKKKRRQRRRYK [HIV-TAT], the MIC against C. difficile ATCC 630 [3] (setting [15]) was above 64 µM.

Regarding “GRKKKRRQRRRYK-O-CATACAATTCTC-NH 2 [rpoA-TAT mismatch, mismatch control PNA conjugated to the TAT cell penetrating peptide]”, the MIC (in test [2] (setting [16]); against C. difficile ATCC 630 [3] (setting [15]); with C. difficile ATCC 43255 (setting [16])) was above 32 µM each time. For the same molecule, the MBC (in test [2] (setting [17]); against C. difficile ATCC 630 [3] (setting [18]); with C. difficile ATCC 43255 (setting [17])) was above 32 µM each time. Also, the “MIC against clinical isolates of C. difficile” value in [14] is above 32 µM.

For the molecule “KFFKFFKFFK-O-CATGGACAAAAC-NH2 [(KFF)3K-rpoA]”, the MBC in the test on C. difficile ATCC 630 [3] (setting [18]) amounted to 32 µM. The same molecule showed an MIC against C. difficile ATCC 630 [3] (setting [15]) of 32 µM.

KKKKKKKK-O-CATGGACAAAAC-NH2 [K8-rpoA] registered an MBC against C. difficile ATCC 630 [3] (setting [18]) of 32 µM. In the test with C. difficile ATCC 630 [3] (setting [15]), the MIC came out at 32 µM.

In the test with C. difficile ATCC 630 [3] (setting [18]), “RFRRFRRFRRFRXB-O-CATGGACAAAAC-NH2 [(RFR)4XB -rpoA]” displayed an MBC of 8 µM. The same molecule displayed an MIC in the test with C. difficile ATCC 630 [3] (setting [15]) of 8 µM.

Turning to “RXRRXRRXRRXRXB-O-CATGGACAAAAC-NH2 [(RXR)4XB -rpoA]”, in the test with C. difficile ATCC 630 [3] (setting [18]), the MBC is given as 8 µM. In the test with C. difficile ATCC 630 [3] (setting [15]), this molecule showed an MIC of 8 µM.

(Values after PMC10581251, “Antisense inhibition of RNA polymerase α subunit of Clostridioides difficile” (Microbiology Spectrum, 2023).)
